Reference: US20070072815A1, “Methods and kits to increase the efficiency of oligonucleotide-directed nucleic acid sequence alteration” (priority 2004, published 2007)
“Also recorded” adds a separate entry of the source.

Legend:
DNA of DLD-1-1 cells = test: Pulsed-field gel electrophoresis of DNA damage (double strand breaks); type: cell-based; conditions: 0.75 μM bleomycin or 0.2 μM MMS, 24 hours
Experimental: The cells are released by trypsinization and melted in the agarose inserts. The agarose inserts are incubated in 0.5M EDTA—1% N-laurosylsarcosine—proteinase K (1 mg/ml) at 50° C. for 48 hrs and then washed four times in TE buffer prior to loading on a 1% agarose gel (Pulse-Field Certified Agarose, Bio-Rad, Hercules, Calif.) and DNA separation by pulsed-field gel electrophoresis is carried out for 24 hrs (Bio-Rad, 120° field angle, 60 to 240s switch time, 4 V/cm). The gel is subsequently stained with ethidium bromide and analyzed with AlphaImager™ 2200. (Alpha Innotech Corp., San Leandro, Calif.).
The effects of MMS and bleomycin on oligonucleotide-directed gene alteration are determined as follows. DLD-1-1 cells are seeded in 100 mm dishes at 2×10^6 cells per plate and immediately treated with 0.2 μM MMS or 0.75 μM bleomycin. The cells are then grown for 24 hours, until approximately 50% confluent, and washed twice with PBS. A portion of each population of cells is removed for DNA analysis by pulsed-field electrophoresis, as described in Example 1. The correcting oligo EGFP/72NT (10 μg) is then added and the cells are electroporated as in Example 3. Cells are then analyzed to determine the percentage of cells with corrected eGFP genes as described in Example 3.

[1] = test system: mutant eGFP gene in DLD-1-1 cells; test: eGFP gene correction (oligonucleotide-directed sequence alteration) in DLD-1-1 cells, FACS readout; type: cell-based; conditions: 0.2 μM MMS 24 hours before electroporation, 10 μg oligo
DLD-1-1 cells [2] = test: Cell viability / cell death by propidium iodide FACS
Experimental: Flow cytometry analysis: eGFP fluorescence of corrected cells is measured by a Becton Dickinson FACSCalibur™ flow cytometer (Becton Dickinson, Rutherford, N.J.). Cells are harvested 48 hrs after electroporation and resuspended in FACS buffer (0.5% BSA, 2 mM EDTA, 2 μg/ml propidium iodide in PBS). More specifically, the program is set for the appropriate cell size (forward scatter versus side scatter) and the population of single-cells is gated for analysis. Using the negative control (minus PI, minus GFP) the background fluorescence was set by positioning the cells in the 10^1 decade of the dot plot by adjusting the voltage for FL1 (GFP) and FL2 (PI). The composition is then set for multi-fluorochrome experiments using a GFP control sample containing no PI and increasing the compensation to bring the signal toward the FL1 parameter. Finally, the last control, PI and no GFP is used to increase the compensation to bring the signal toward the FL2 parameter. Samples of 50,000 cells each are analyzed and those cells being GFP positive and PI negative are scored as corrected cells.
For cells that were not previously treated with caffeine, caffeine is added to the media to a final concentration of 4 mM in the 60 mM dish immediately following electroporation (the “recovery phase”). For cells that were pre-treated with caffeine, there is no addition of caffeine during the recovery phase. After 24 hrs of recovery, the media is changed and caffeine (4 mM final concentration) is added back to the culture. After 48 hrs of recovery, the samples are read by FACS: eGFP fluorescence reflects gene alteration (correction), and propidium iodide (PI) staining reflects cellular viability.

[3] = test system: mutant eGFP gene in DLD-1-1 cells; test: eGFP gene correction (oligonucleotide-directed sequence alteration) in DLD-1-1 cells, FACS readout; type: cell-based; conditions: for correction efficiency: cells synchronized by double thymidine block, then 10 mM thymidine 24 hours
Experimental: Cell line and culture conditions: DLD-1 cells are obtained from ATCC (American Type Cell Culture, Manassas, Va.). DLD-1 integrated clone 1 (DLD-1-1) is obtained by integration of the vector pEGFP-N3 containing a single point mutation (TAG) in the eGFP gene, as described in copending U.S. patent application Ser. No. 10/986,418, filed Nov. 10, 2004 (“Mammalian Cell Lines for Detecting, Monitoring, and Optimizing Oligonucleotide-Mediated Chromosomal Sequence Alteration”). Cells are grown in RPMI 1640 medium with 2 mM glutamine, 4.5 g/L glucose, 10 mM HEPES, 1 mM sodium pyruvate and supplemented with 10% FBS. Cells are maintained at 5% CO2, 37° C. and under selection in 200 μg/ml G418 (Gibco, Invitrogen Co., Carlsbad, Calif.).
eGFP gene correction: Cells grown in complete medium supplemented with 10% FBS are trypsinized and harvested by centrifugation. The cell pellet is resuspended in serum-free medium at a density of 1×10^6 cells/100 μl and transferred to a 4 mm gap cuvette (Fisher Scientific, Pittsburgh, Pa.). The oligonucleotide is then added at a concentration of 4 μM and the cells are electroporated (LV, 250V, 13 msec, 2 pulses, 1 second interval) using a BTX ECM830 apparatus (BTX, Holliston, Mass.). The cells are then transferred to a 60 mm dish containing fresh medium supplemented with 10% FBS and incubated for 48 hrs at 37° C. before harvesting for FACS analysis.
The percentage of converted cells in a whole population is then calculated by CellQuest™ (Becton Dickinson) and GFP/PI programs. The correction efficiency is determined by dividing the number of eGFP positive cells by the number of cells analyzed in each experiment (usually 50,000 cells). Each clone is tested three times to determine the standard deviation of the correction efficiency, with standard deviation calculated using Microsoft Excel.
The experimental strategy involves the introduction of oligonucleotides into DLD-1-clone 1 cells by electroporation followed by phenotypic readout of the corrected eGFP gene, 48 hours later. The correcting oligonucleotide (EGFP3S/72NT) is 72 bases in length (72-mer), complementary to the non-transcribed strand of the mutant eGFP gene but designed to create a single mismatch in the third base of codon 67 (see FIG. 1A). It directs conversion of a TAG→TAC codon which enables phenotypic expression of eGFP, which can be detected by FACS. FIG. 1B outlines the sequence of the target gene, the 72-mer and a nonspecific 74-mer used as a control.
Oligonucleotide-Directed Sequence Alteration: The resulting synchronized populations of cells, and asynchronous controls, are grown in complete medium supplemented with 10% FBS and trypsinzed and harvested by centrifugation at 1500 rpm for 5 minutes. The cell pellet is resuspended in fresh serum-free medium at a density of 2×10^6 cells/100 μl. The entire cell suspension is mixed with 20 μg of EGFP/72NT and transferred into a 4 mm gap cuvette (Fisher Scientific, Pittsburgh, Pa., USA) followed by electroporation with two 250V pulses, each 13 ms in duration, with one second between pulses, unipolar.
Cells are incubated at room temperature for 30 min. […] Frequency of converted cells are calculated by CellQuest™ and GFP/PI programs.
Double Thymidine Block: Cells are synchronized in G1 or at the G1/S border by a double thymidine block. Twenty-four hours prior to the addition of any agent (HU, etc.), cells are plated at a density of 0.5×10^6 cells per 100 mm dish, followed by incubation in 2 mM thymidine (Sigma) for 16 hrs, washed and released in fresh medium for 10 hrs, then incubated in 2 mM thymidine for an additional 15 hrs.
FACS is then used to analyze 50,000 cells from each population to determine the percentage of cells expressing functional eGFP, as described in Example 1.

DLD-1-1 cells [4] = test: Cell cycle analysis (DNA content by FACS), cells in S phase; type: cell-based
Experimental: (§1) For cell cycle analysis, 1×10^6 cells are plated 24 hrs before the treatment with drugs and after 24 hrs of treatment, cells are trypsinized, resuspended in 300 μl cold PBS and fixed by adding 700 μl cold ethanol. Cells are then resuspended in 1 ml of PBS containing 500 µg/ml RNaseA and […] propidium iodide and analyzed for DNA content.
The effect of cell cycle on the efficiency of ODSA is assessed by synchronizing a population of DLD-1-1 cells with mimosine, which arrests cells in early S phase, and serum starvation. Cells are seeded at a density of 0.8×10^6 per 100 mm dish, attached for 20 hours and then cultured in RMPI-1640 medium containing 0.2% fetal bovine serum (FBS). These cells are grown for 48 hours followed by treatment with 0.1 mM mimosine (Sigma, St. Louis, Mo., USA) for 20 hours. Cell are washed twice with PBS and released at various times into fresh medium complemented with 10% FBS before electroporation. Cells are rinsed once with PBS, trypsinized and harvested by centrifugation and resuspended in PBS containing 10 μg/ml propidium iodide, 0.03% Triton-100 and 1 mg/ml RNase. Cells are incubated at room temperature for 1 hour before the measurement of DNA content by FACSCalibur™ flow cytometer. The percentage of cells at various stages of the cell cycle is determined by ModFit L™ software (Verity Software House, Inc., Topsham, Me., USA).
(§2) The resulting cells are then either analyzed by FACS, or the percentage of cells in S phase is determined by BrdU incorporation. FIG. 8 presents the results of both sets of experiments.

DLD-1-1 cells [5] = test: BrdU incorporation (actively replicating forks); type: cell-based; conditions: 24 hour treatment; 500 μM ddC, ddI or AraC (FIG. 17B)
Experimental: as §1, §2
As stated above, the lack of stimulation observed in cells treated with AraC could be explained by the reduced number of cells passing through S phase or the absence of actively replicating forks. If true, we might predict that a rise in the gene repair frequency would appear if the cells are released from the AraC block and replication forks are allowed to restart prior to the electroporation of the oligonucleotide. We test this prediction by treating the cells with AraC for 24 hrs and then releasing them by washing out the drug at specific times. We measure the level of BrdU incorporation at the time of electroporation and evaluate the frequency of correction 48 hrs later.

[6] = test system: α-galactosidase A (GLA) activity in Fabry's cell line DMN-1; test: GLA activity in Fabry's cells after ODSA; type: cell-based, human; conditions: cells synchronized by DTB, 500 μM ddC
Text: (§3) Cell line DMN-1, a human fibroblast cell line derived from a human patient with Fabry's disease, is obtained from the National Institutes of Health (NIH). These cells are used to measure the efficiency of correction of a mutant allele of α-galactosidase A (GLA) using methods of the present invention. The specific disease-causing mutation in the Fabry's cell line used herein is A143P, caused by a G→C mutation in the gene. See Branton et al., Medicine (Baltimore) (2002) 81(2): 122-38.
(§4) All four oligonucleotides are used to effect ODSA substantially as described in Example 1, with the exception that cells are transfected with oligonucleotides, rather than electroporated. Oligos are added at 5 μg, 10 μg or 30 μg per reaction. After ODSA is performed, cells are cultured and assayed for GLA activity according to the method of Brady, as described in Medin et al., Proc. Natl. Acad. Sci. (USA) (1996) 93:7917-22, the disclosure of which is incorporated herein by reference in its entirety. The GLA activity is used as a measure of gene correction by comparing the activities in treated versus untreated cultures. The correction efficiency is subsequently confirmed by sequencing of the locus of mutation in a number of treated cells.
[…] Unlike the experiments involving correction of eGFP in DLD-1-1 cells described in Example 1, however, certain of the agents (VPA, caffeine, TSA) in the experiments in this example are not added before transfection, but are instead added only after transfection, during the recovery period.
(§5) The means of introducing oligonucleotide into the target cells also differs from previous examples, with transfection in the presence of the transfection enhancing agent FuGENE™ 6 (FG) (Roche Diagnostics Corp., Indianapolis, Ind., USA) being used rather than electroporation. Each transfection reaction includes 100 μl of target cells and 12 μl of FG unless otherwise indicated, despite the fact that FG is not explicitly listed for each datapoint in the relevant figures. Otherwise the procedures used in the DLD-1-1 experiments and the Fabry's experiments are similar.
The results of a further series of experiments are shown at FIG. 15D, where the data are presented as GLA activity as nanomolar (nM) concentration of the product of the GLA assay generated per hour per unit protein concentration (as are the data in FIGS. D and E).

[7] = test system: mutant allele (A143P) of α-galactosidase A (GLA) in Fabry's cell line DMN-1; test: Correction efficiency of mutant GLA allele in Fabry's cells; type: cell-based, human; conditions: VP16 1-50 μM; thymidine 2-50 mM; with or without correcting oligonucleotide
Text: as §3, §4
As in the previous examples, target cells are treated with HU, VP16 or CPT prior to transfection with the correcting oligonucleotide. Unlike the experiments involving correction of eGFP in DLD-1-1 cells described in Example 1, however, certain of the agents (VPA, caffeine, TSA) in the experiments in this example are not added before transfection, but are instead added only after transfection, during the recovery period.
as §5
The same experiment as described with respect to FIG. 15A is repeated in the presence of various agents and treatments to evaluate whether embodiments of the present invention can increase gene alteration (in this example, correction) efficiency. […] Bars represent the correction efficiencies observed in the various experiments. Unless otherwise indicated, all experiments include 10 μg of 49T/gg in addition to any other agent used to treat the cells.

COS(C)(=O)=O [MMS, methyl methanesulfonate]
DNA damage (DNA of DLD-1-1 cells): effect DNA damage | effect on correction efficiency [1]: more than doubles the correction efficiency; also recorded: doubles correction efficiency | effect on cell death (DLD-1-1 cells [2]; 0.2 μM MMS): Cell death is not increased

Nc1ccn([C@H]2CC[C@@H](CO)O2)c(=O)n1 [ddC, 2′3′-dideoxycytidine]
correction levels ([3]; cells treated with ddC alone (FIG. 20)): 2.9% | effect on correction efficiency (increase) ([3]; ddC 24 hrs before electroporation, 500-750 μM): more than two-fold; also recorded: approximately two- to three-fold; also recorded: dose-dependent increase | cells in S phase (DLD-1-1 cells [4]; 24 hour treatment, 500 μM ddC, ddI or AraC (FIG. 17A)): 70% | BrdU uptake (cells actively incorporating DNA bases) (DLD-1-1 cells [5]): 71.8% | increase of GLA activity compared with untreated cells [6]: approximately two-fold; also recorded: doubles DLA activity | toxicity (DLD-1-1 cells [2]; ddC levels higher than 750 μM (data not shown)): cellular toxicity

Cc1cn([C@H]2C[C@H](O)[C@@H](CO)O2)c(=O)[nH]c1=O [thymidine]
correction efficiency in synchronized cells relative to asynchronous cells ([3]; 1 mM HU or 10 mM thymidine, DTB synchronized vs asynchronous): over seven times | effect of synchronization by double thymidine block on correction efficiency ([3]; 2 mM thymidine 16 hrs, release 10 hrs, 2 mM thymidine 15 hrs, no other agent): increases correction efficiency | effect on correction efficiency in asynchronous cells ([3]; 10 mM thymidine 24 hours): does not enhance correction efficiency | correction efficiency [3]: 7.5% | correction efficiency ([3]; listed as Thymidine): over 7% | proportion of cells in S phase (DLD-1-1 cells [4]; after double thymidine block): 1.5% | effect on correction efficiency [7]: little effect on correction efficiency

bleomycin
DNA damage (DNA of DLD-1-1 cells): effect DNA damage
